The experiment addresses HSD2 (Homo sapiens (Human), UniProt P80365). The experiment is described as follows: HSD2 activity: cortisol conversion in human descending colon organoid monolayer cultures (Example 112). The conditions noted are these: human descending colon epithelial cultures on transwells; 30 minute pre-incubation, then 40 nM cortisol for four hours; cortisol HTRF assay. On the technique in general: In TR-FRET formats the signal depends on donor and acceptor labels being close together.

Among the data in patent US20240209019A1, “COMPOUNDS AND METHODS FOR TREATING HYPERKALEMIA” (ARDELYX, INC., priority 2019, published 2024) are pIC50 values, retold here.

HSD2, sequence (P80365 whole entry): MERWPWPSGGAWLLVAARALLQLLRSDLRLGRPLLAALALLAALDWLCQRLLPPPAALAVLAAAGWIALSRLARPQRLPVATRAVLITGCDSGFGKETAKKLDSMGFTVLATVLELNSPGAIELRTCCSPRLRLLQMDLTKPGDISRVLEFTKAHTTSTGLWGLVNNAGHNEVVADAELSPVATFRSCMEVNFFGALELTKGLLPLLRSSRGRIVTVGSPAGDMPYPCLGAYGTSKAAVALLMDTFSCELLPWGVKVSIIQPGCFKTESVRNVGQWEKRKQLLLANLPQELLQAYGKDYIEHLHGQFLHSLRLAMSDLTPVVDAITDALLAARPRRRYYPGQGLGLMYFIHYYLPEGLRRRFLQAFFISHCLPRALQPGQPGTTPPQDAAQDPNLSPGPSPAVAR
Protocol: Human descending colon epithelial stem cells were cultured as 3D organoids in accordance with Sato et al. Gastroenterology. […] Cultures were differentiated using SBM containing ENRA and 30 nM aldosterone on day 3, and cultures were used for assay on day 6 or 7. Compounds were diluted in DMSO and serial dilutions prepared by titrating in DMSO. Compounds were then diluted into DMEM/F12. Transwell plates containing descending colon cultures were washed twice with DMEM/F12 and compound was added to the apical compartment. Cells were incubated with test compound for 30 minutes at 37° C., 5% CO2 to equilibrate across the cell membrane. A second compound plate was prepared in which the serially diluted compounds in DMSO were diluted into DMEM/F12 containing 40 nM cortisol. Following the 30 minute pre-incubation step, the apical media was aspirated and compounds diluted in DMEM/F12 with 40 nM cortisol were added to the apical side of the transwell. The plate was then incubated for four hours at 37° C., 5% CO2. Cortisol levels were measured using a cortisol HTRF assay kit as described by the manufacturer (Cisbio). Concentration-response curves were then plotted and IC50 (and pIC50) values were determined using least squares non-linear regression.
Inhibition of HSD2 activity as measured by the inhibition of the conversion of cortisone to cortisol.

On to “2-(3-((1-PEG5K-1H-1,2,3-triazol-4-yl)methoxy)-4-nitrobenzyl) 9-((5-methyl-2-oxo-1,3-dioxol-4-yl)methyl) (2S,4aS,6aS,6bR,8aR,9S,10S,12aS,12bR,14bR)-10-((2,5,8,11-tetraoxatetradecan-14-oyl)oxy)-2,4a,6a,6b,9,12a-hexamethyl-13-oxo-1,2,3,4,4a,5,6,6a,6b,7,8,8a,9,10,11,12,12a,12b,13,14b-icosahydropicene-2,9-dicarboxylate [Compound 605-2]”, for which the pIC50 (as a rule, the IC50 on a negative log10 scale, so that one unit is a factor of ten) was 6.9.
In turn, `C[C@]1(C(=O)O)CC[C@]2(C)CC[C@]3(C)C(=CC(=O)[C@@H]4[C@@]5(C)CC[C@H](OC(=O)c6ccccc6)[C@@](C)(C(=O)O)[C@@H]5CC[C@]43C)[C@@H]2C1` [(2S,4aS,6aS,6bR,8aR,9S,10S,12aS,12bR,14bR)-10-(benzoyloxy)-2,4a,6a,6b,9,12a-hexamethyl-13-oxo-1,2,3,4,4a,5,6,6a,6b,7,8,8a,9,10,11,12,12a,12b,13,14b-icosahydropicene-2,9-dicarboxylic acid] registered a pIC50 of 6.6.
In turn, `Cc1oc(=O)oc1COC(=O)[C@H]1CC[C@]2(C)[C@H]3C(=O)C=C4[C@@H]5C[C@@](C)(C(=O)O)CC[C@]5(C)CC[C@@]4(C)[C@]3(C)CC[C@H]2C1(C)C` [Compound 176-2, (2S,4aS,6aS,6bR,8aS,10S,12aS,12bR,14bR)-2,4a,6a,6b,9,9,12a-Heptamethyl-10-(((5-methyl-2-oxo-1,3-dioxol-4-yl)methoxy)carbonyl)-13-oxo-1,2,3,4,4a,5,6,6a,6b,7,8,8a,9,10,11,12,12a,12b,13,14b-icosahydropicene-2-carboxylic acid] yielded a pIC50 of 6.3.
The value for `CC(=O)O[C@]1(C)CC[C@@]2(C)[C@@H](CC[C@]3(C)[C@@H]2C(=O)C=C2[C@@H]4C[C@@](C)(C(=O)O)CC[C@]4(C)CC[C@]23C)[C@]1(C)C(=O)OCc1oc(=O)oc1C(C)C` [Compound 702-1, (2S,4aS,6aS,6bR,8aR,9S,10R,12aS,12bR,14bR)-10-(acetyloxy)-2,4a,6a,6b,9,10,12a-heptamethyl-13-oxo-9-({[2-oxo-5-(propan-2-yl)-2H-1,3-dioxol-4-yl]methoxy}carbonyl)-1,2,3,4,4a,5,6,6a,6b,7,8,8a,9,10,11,12,12a,12b,13,14b-icosahydropicene-2-carboxylic acid] was 6.4; that for `COCC(=O)O[C@H]1CC[C@@]2(C)[C@@H](CC[C@]3(C)[C@@H]2C(=O)C=C2[C@@H]4C[C@@](C)(C(=O)O)CC[C@]4(C)CC[C@]23C)[C@]1(C)C(=O)OCc1oc(=O)oc1C` [Compound 709-1, (2S,4aS,6aS,6bR,8aR,9S,10S,12aS,12bR,14bR)-10-[(2-methoxyacetyl)oxy]-2,4a,6a,6b,9,12a-hexamethyl-9-{[(5-methyl-2-oxo-2H-1,3-dioxol-4-yl)methoxy]carbonyl}-13-oxo-1,2,3,4,4a,5,6,6a,6b,7,8,8a,9,10,11,12,12a,12b,13,14b-icosahydropicene-2-carboxylic acid] was 7.2.
Next, `CC(=O)O[C@H]1CC[C@@]2(C)[C@@H](CC[C@]3(C)[C@@H]2C(=O)C=C2[C@@H]4C[C@@](C)(C(=O)O)CC[C@]4(C)CC[C@]23C)[C@]1(C)C(=O)O` [(2S,4aS,6aS,6bR,8aR,9S,10S,12aS,12bR,14bR)-10-(acetyloxy)-2,4a,6a,6b,9,12a-hexamethyl-13-oxo-1,2,3,4,4a,5,6,6a,6b,7,8,8a,9,10,11,12,12a,12b,13,14b-icosahydropicene-2,9-dicarboxylic acid]: 5.9.
Regarding `CC1OC(=O)OC1COC(=O)[C@H]1CC[C@]2(C)[C@H]3C(=O)C=C4[C@@H]5C[C@@](C)(C(=O)O)CC[C@]5(C)CC[C@@]4(C)[C@]3(C)CC[C@H]2C1(C)C` (stereo partly drawn) [Compound 178-1, (2S,4aS,6aS,6bR,8aS,10S,12aS,12bR,14bR)-2,4a,6a,6b,9,9,12a-Heptamethyl-10-(((5-methyl-2-oxo-1,3-dioxolan-4-yl)methoxy)carbonyl)-13-oxo-1,2,3,4,4a,5,6,6a,6b,7,8,8a,9,10,11,12,12a,12b,13,14b-icosahydropicene-2-carboxylic acid], the pIC50 stood at 6.3.
Next, `CSCC(=O)O[C@H]1CC[C@@]2(C)[C@@H](CC[C@]3(C)[C@@H]2C(=O)C=C2[C@@H]4C[C@@](C)(C(=O)O)CC[C@]4(C)CC[C@]23C)[C@]1(C)C(=O)OCc1oc(=O)oc1C(C)C` [Compound 701-1, (2S,4aS,6aS,6bR,8aR,9S,10S,12aS,12bR,14bR)-2,4a,6a,6b,9,12a-hexamethyl-10-{[2-(methylsulfanyl)acetyl]oxy}-13-oxo-9-({[2-oxo-5-(propan-2-yl)-2H-1,3-dioxol-4-yl]methoxy}carbonyl)-1,2,3,4,4a,5,6,6a,6b,7,8,8a,9,10,11,12,12a,12b,13,14b-icosahydropicene-2-carboxylic acid]: 7; `CCc1oc(=O)oc1COC(=O)[C@@]1(C)[C@@H]2CC[C@]3(C)[C@H](C(=O)C=C4[C@@H]5C[C@@](C)(C(=O)O)CC[C@]5(C)CC[C@]43C)[C@@]2(C)CC[C@@]1(C)OC(C)=O` [Compound 703-1, (2S,4aS,6aS,6bR,8aR,9S,10R,12aS,12bR,14bR)-10-(acetyloxy)-9-{[(5-ethyl-2-oxo-2H-1,3-dioxol-4-yl)methoxy]carbonyl}-2,4a,6a,6b,9,10,12a-heptamethyl-13-oxo-1,2,3,4,4a,5,6,6a,6b,7,8,8a,9,10,11,12,12a,12b,13,14b-icosahydropicene-2-carboxylic acid]: 6.1; `Cc1oc(=O)oc1COC(=O)CO[C@H]1CC[C@]2(C)[C@H]3C(=O)C=C4[C@@H]5C[C@@](C)(C(=O)O)CC[C@]5(C)CC[C@@]4(C)[C@]3(C)CC[C@H]2C1(C)C` [Compound 712-1, (2S,4aS,6aS,6bR,8aR,10S,12aS,12bR,14bR)-2,4a,6a,6b,9,9,12a-heptamethyl-10-{2-[(5-methyl-2-oxo-2H-1,3-dioxol-4-yl)methoxy]-2-oxoethoxy}-13-oxo-1,2,3,4,4a,5,6,6a,6b,7,8,8a,9,10,11,12,12a,12b,13,14b-icosahydropicene-2-carboxylic acid]: 5.
The value for `CSCC(=O)O[C@H]1CC[C@@]2(C)[C@@H](CC[C@]3(C)[C@@H]2C(=O)C=C2[C@@H]4C[C@@](C)(C(=O)O)CC[C@]4(C)CC[C@]23C)[C@]1(C)C(=O)OCc1oc(=O)oc1C` [Compound 194-10, (2S,4aS,6aS,6bR,8aR,9S,10S,12aS,12bR,14bR)-2,4a,6a,6b,9,12a-Hexamethyl-9-(((5-methyl-2-oxo-1,3-dioxol-4-yl)methoxy)carbonyl)-10-(2-(methylthio)acetoxy)-13-oxo-1,2,3,4,4a,5,6,6a,6b,7,8,8a,9,10,11,12,12a,12b,13,14b-icosahydropicene-2-carboxylic acid] was 8; that for `Cc1oc(=O)oc1COC(=O)[C@]1(C)[C@@H](OC(=O)c2ccccc2)CC[C@@]2(C)[C@H]1CC[C@]1(C)[C@@H]2C(=O)C=C2[C@@H]3C[C@@](C)(C(=O)O)CC[C@]3(C)CC[C@]21C` [Compound 197-2, (2S,4aS,6aS,6bR,8aR,9S,10S,12aS,12bR,14bR)-10-(Benzoyloxy)-2,4a,6a,6b,9,12a-hexamethyl-9-(((5-methyl-2-oxo-1,3-dioxol-4-yl)methoxy)carbonyl)-13-oxo-1,2,3,4,4a,5,6,6a,6b,7,8,8a,9,10,11,12,12a,12b,13,14b-icosahydropicene-2-carboxylic acid] was 7.9.
